Test results reported in patent US6710077B1, “Use of thiocarboxanilide derivatives for the preparation of a medicament for preventing the transmission of HIV to uninfected cells and contraceptive compositions comprising the said derivatives” (Uniroyal Chemical Company, Inc., priority 1996, dated 2004).

Assays:
HIV-1 = assay: Preincubation of isolated HIV-1 with test compounds, then infection of PHA-activated CBMC; conditions: 2 hours at 37° C., drug removed, RT activity and p24 on day 7, FIG. 1
Experimental: Identical viral inocula (with respect to viral p24 levels) were then added to PHA-activated CBMC. Viral infectivity was assessed by measurement of RT activity in cell-free culture supernatants after 7 days incubation of cells and virus. […] The results are averages ±S.D. of triplicate determinations from three separate experiments.
All cells were cultured in RPMI medium containing 10% fetal bovine serum. HIV-1 stocks were propagated by subculture in MT-2 cells; aliquots of the cell-free culture supernatants were generally used as viral inocula. In some cases, virus was further concentrated from these cell-free supernatants by ultracentrifugation. CBMC were prestimulated with phytohemagglutinin (PHA) prior to use in infection experiments, as described in Rooke et al, Virology 176: 205-215 (1990). Stock solutions of the test compounds were prepared in dimethyl sulfoxide (DMSO). […] Virus production was assessed by measurement of RT activity and viral p24 antigen levels in the culture supernatants.
After incubation, drug-free RPMI was added to a final volume of 15 ml and the diluted sample was concentrated to a final volume of 0.7 ml using a Centriprep-100 centrifugal concentrating device, according to manufacturer's directions. […] On day 7, culture supernatants were isolated and HIV production assessed by measurement of RT activity and p24 antigen levels in the cell-free supernatants.

[1] = test system: PBL cells isolated from blood of HIV-1 infected patients; assay: Incubation of PBL from HIV-1 infected patients with compound, then co-culture with CBMC; format: cell-based; conditions: for infectivity of HIV-1 produced by patient PBL: 10 μM, 2 hr at 37° C., drug removed, co-culture with CBMC, p24 antigen, FIG. 3
Experimental: FIG. 3 depicts the effect of pretreatment of peripheral blood lymphocytes (PBL) from HIV-1 infected patients with Compound IA on the subsequent virus infectivity of CBMC cells. 2×10^6 isolated PBL cells were incubated for 2 hours with media only (●), 10 μM nevirapine (▪), or 10 μM Compound IA (▴), then residual drug was removed. The cells were then co-cultured with 2×10^6 CBMC cells and p24 production was monitored.
PBL cells (2×10^6 cells) isolated from blood of HIV-1 infected patients were incubated with media, 10 μM nevirapine and 10 μM Compound IA, in a total volume of 1 ml for 2 hr at 37° C. Excess drug was then removed by pelleting the cells by centrifugation at 300×g for 10 min and removal of the medium. The cell pellet was washed by suspension in 10 ml media, followed by centrifugation. This washing step was repeated twice. The final cell pellet was resuspended in 1 ml media, then co-cultured with 1 ml of activated CBMC (2×10^6 cells) The culture medium was changed every two days, and fresh activated CBMC (2×10^6 cells) were added once a week. HIV-1 production was monitored by measurement of p24 antigen levels in cell-free culture supernatants.
FIG. 3 illustrates the results obtained using PBL from three different patients.

[2] = test system: HIV-1 infection of uninfected MT-2 cells; conditions: MT-2 cells pretreated with 2 μM, drug removed, continued presence of HIV-1
Experimental: FIG. 4A: Uninfected MT2 cells were incubated for 18 hours with varying concentrations of Compound IA in 1 ml media, then the cells were pelleted by centrifugation, and washed twice by resuspension in 10 ml medium followed by centrifugation. The cells were exposed to identical inocula of HIV-1 and cultured in the absence of added drug. Four days after removal of Compound IA, the extent of HIV-1 infection was assessed by measurement of syncytia formation (●), viral p24 antigen levels (▴), and RT activity (∘), in cell-free supernatants. […] Uninfected MT2 cells were incubated for 18 hours in the absence (∘) or the presence of 0.5 μM (▴), 1 μM (∇), or 2 μM (●), of Compound IA. […] Viral cytopathicity was scored by microscopic assessment of syncytia formation. […]
FIG. 5A: Uninfected MT2 cells were incubated for 18 hours in the absence (▪) or the presence (●) of 2 μM of Compound IA, then the cells were isolated and cultured in the absence of drug. At various times thereafter, HIV-1 was added and virus infectivity assessed by microscopic analysis of syncytium formation. […]
All cells were cultured in RPMI medium containing 10% fetal bovine serum. […] Virus production was assessed by measurement of RT activity and viral p24 antigen levels in the culture supernatants. […]

[3] = test system: HIV-1 chronically-infected H9 cells; assay: Incubation of HIV-1 chronically-infected H9 cells with test compounds, then infectivity on MT-2 cells; format: cell-based
Description: FIG. 2 depicts the effect of pretreatment of chronically-infected H9 cells with Compound IA or UC84 on (A) virus particle release from H9 cells during drug exposure, as assessed by measurement of HIV-1 p24 levels; (B) infectivity of isolated virus produced by H9 cells during drug treatment, as assessed by the ability to subsequently infect MT2 cells in the absence of drug; and (C) the ability of Compound IA-pretreated chronically-infected H9 cells to subsequently infect MT2 cells in co-culture experiments carried out in the absence of drug. The data illustrated for (B) and (C) were obtained four days after exposure of MT2 cells to virus or H9 cells, respectively. (∘) Compound UC84; (●) Compound IA.
The cells were then separated from the culture supernatants by centrifugation at 1000×g for 10 min. The virus particles were isolated from the culture supernatants and from residual Compound IA using Centriprep-100 centrifugal concentrating devices and the dilution/concentration protocol described above in Example 1. The pelleted H9 cells were washed by suspension in 10 ml RPMI, followed by centrifugation at 1000×g for 10 min. The cell pellet was resuspended in 4 ml RPMI/10% FBS, and used in co-culture experiments as described below.
Aliquots of the final concentrated HIV suspension were added to MT-2 cells ([…] cells/ml). Virus infectivity was assessed 6 days post-infection by analysis of syncytium formation, and RT activity and p24 antigen in the MT-2 cell culture supernatants. Similarly, aliquots of the drug-treated H9 cells were added to MT-2 cells (3×10^5 cells/ml) to give a final MT-2:H9 cell ratio of 30:1. Cells were co-cultured for 4 days, and HIV infection of MT-2 cells was scored by assessing syncytium formation and by analysis of RT activity in the culture supernatants.

Compound	viral infectivity after preincubation of isolated HIV-1 with compound (HIV-1)	infectivity of HIV-1 produced by patient PBL [1]	duration of resistance to the cytopathic effect of HIV-1 [2]	resistance of pretreated cells to the cytopathic effect of HIV-1 ([2]; syncytium formation)	persistence of attenuated infectivity following removal of extracellular compound ([3]; chronically-infected H9 cells)	infectivity of virus produced by H9 cells following removal of compound ([3]; pretreated, washed H9 cells co-cultured with MT-2 cells in absence of drug)	infectivity of virus particles isolated after exposure of chronically-infected H9 cells ([3]; virus isolated from culture supernatants, added to MT-2 cells in absence of drug, FIG. 2)	viral infectivity after 30 days co-culture with uninfected CBMC ([1]; 10 μM pretreatment of patient PBL, 30 days co-culture)
Cc1ccnc2c1NC(=O)c1cccnc1N2C1CC1 [nevirapine, reference compound]	No viral inactivation	unable to significantly delay viral infectivity	–	–	–	–	–	–
CC(C)=CCOc1cc(NC(=S)c2ccoc2C)ccc1Cl [Compound IA, N-[4-chloro-3-(3-methyl-2-butenyloxy)phenyl]-2-methyl-3-furancarbothioamide]	rendered non-infectious	abolished the infectivity	at least 9 days	completely resistant	at least 4 days	also attenuated in infectivity	significantly attenuated in infectivity	No viral infectivity
